Laboratory results reported in US8546321B2, “IL-4-derived peptides for modulation of the chronic inflammatory response and treatment of autoimmune diseases” (Kobenhavns Universitet, priority 2008, dated 2013).
Read-outs that look alike come from different tables or passages of the source.

What was measured:
[1] = system: cerebellar granular neurons (CGN); test: Neurite outgrowth assay in cultures of cerebellar granule neurons; format: cell-based, Wistar rats; details: P7 CGN, peptides added after plating, 24 h
Method: Cerebellar granular neurons (CGN) were prepared from 3 or 7 postnatal (P) day Wistar rats (Charles River, Sulzfeld, Germany or Taconic, Ejby, Denmark). Cerebella were cleared of meninges and blood vessels, roughly homogenized by chopping, and trypsinized with trypsin from Sigma-Aldrich (Brøndby, Denmark). The neurons were washed in the presence of DNAse 1 and soybean trypsin inhibitor (Sigma-Aldrich), and cellular debris was pelleted by centrifugation before plating. For single-cell culture experiments, P7 CGNs were plated at a density of 10,000 cells/well onto uncoated eight-well Lab-Tek chamber slides (NUNC, Slangerup, Denmark) in Neurobasal-A medium supplemented with 0.4% (w/v) BSA. Peptides at various concentrations were added to the medium immediately after plating, and cells were maintained at 37° C. and 5% CO2 for 24 h. Cultures then were fixed, blocked and incubated with polyclonal rabbit antibody against rat GAP-43 (Chemicon, Temecula, Calif., USA) followed by incubation with secondary Alexa Fluor488 goat anti-rabbit antibody (Molecular Probes, Eugene, Oreg., USA) as previously described (Neiiendam et al., 2004). The immunostained cultures were all recorded by computer-assisted fluorescence microscopy using a Nikon Diaphot inverted microscope (Nikon, Japan) equipped with a Nikon Plane 20× objective. Images were captured with a charge-coupled device video camera (Grundig Electronics, Nurnberg, Germany) using the software package Prima developed at the Protein Laboratory (University of Copenhagen, Copenhagen, Denmark). The length of neuronal processes per cell was estimated using the software package Process Length developed at the Protein Laboratory (Ronn et al. 2000). For estimation of neurite outgrowth, at least 200±20 cells were processed for each group in each individual experiment.

malignancies = details: in this dose and schedule (Whitehead et al., 1998); cited from earlier work
[2] = subcutaneous administration, cited from earlier work
psoriasis = details: correcting imbalances in immune functions (Martin 2003); cited from earlier work
[3] = repeated daily dosing; cited from earlier work

AERLKTIMREKYSKS (Variant of fragment of interleukin-4) [SEQ ID NO: 4]
neuritogenic response from primary neurons [1]: induce a neuritogenic response

AITLQEIIKTLNSA (Variant of fragment of interleukin-4) [SEQ ID NO: 2]
neuritogenic response from primary neurons [1]: induce a neuritogenic response

AQFHRHKQLIRFLKRA (Variant of fragment of interleukin-4) [SEQ ID NO: 1]
neuritogenic response from primary neurons [1]: induce a neuritogenic response

ARFLKRLDRNLWGG (Variant of fragment of interleukin-4) [SEQ ID NO: 3]
neuritogenic response from primary neurons [1]: induce a neuritogenic response

rhulL-4: Escherichia coli-derived recombinant human interleukin-4
antitumor activity (malignancies): only low antitumor activity
safety and tolerability ([2]; as high as 10 μg/kg administered 3 times/week): safe and well tolerated
safety and tolerability ([2]; doses as high as 5 μg/kg/day): safe and well tolerated
benefit in patients with psoriasis (psoriasis): beneficial
adverse effects [3]: a number of adverse effects
